Patent US11185074B2, “Microbiocidal quinoline (thio)carboxamide derivatives” (SYNGENTA PARTICIPATIONS AG, priority 2017, dated 2021)

Assays:
[1] = test system: Fusarium culmorum; assay: microbe, parasite or virus in culture; type: cell-based; settings: read-out: control of Fusarium culmorum
[2] = test system: Fusarium culmorum; assay: whole plant or invertebrate; type: in vivo, Fusarium culmorum on wheat spikelets cv. Monsun; settings: in Triticum aestivum, read-out: control of Fusarium culmorum
[3] = test system: Glomerella lagenarium (Colletotrichum lagenarium); assay: Glomerella lagenarium (Colletotrichum lagenarium) / liquid culture (anthracnose); type: cell-based; settings: Colletotrichum orbiculare; 20 ppm; liquid culture, inhibition of growth photometrically 3-4 days after application; compared to untreated control; read-out: control of Glomerella lagenarium
[4] = test system: Botryotinia fuckeliana (Botrytis cinerea); assay: Botryotinia fuckeliana (Botrytis cinerea) / liquid culture (gray mould); type: cell-based; settings: 72 h, 20 ppm, liquid culture, inhibition of growth photometrically 3-4 days after application, compared to untreated control, read-out: control of Botryotinia fuckeliana
[5] = test system: Magnaporthe grisea (Pyricularia oryzae); assay: microbe, parasite or virus in culture; type: cell-based; settings: 72 h, read-out: control of Magnaporthe grisea
[6] = test system: Magnaporthe grisea (Pyricularia oryzae); assay: whole plant or invertebrate; type: in vivo; settings: foliar, read-out: control of Magnaporthe grisea
[7] = test system: Sclerotinia sclerotiorum; assay: Sclerotinia sclerotiorum / liquid culture (cottony rot); settings: 72 h, read-out: control of Sclerotinia sclerotiorum
Protocol: Sclerotinia sclerotiorum/Liquid Culture (Cottony Rot)
Mycelia fragments of a newly grown liquid culture of the fungus are directly mixed into nutrient broth (Vogels broth). After placing a (DMSO) solution of test compound into a microtiter plate (96-well format) the nutrient broth containing the fungal material is added. The test plates are incubated at 24° C. and the inhibition of growth is determined photometrically 3-4 days after application.

[8] = test system: Monographella nivalis (Microdochium nivale); assay: Monographella nivalis (Microdochium nivale) / liquid culture (foot rot cereals); type: cell-based; settings: 96 h, inhibition of growth photometrically 4-5 days after application, compared to untreated control
[9] = test system: Gibberella zeae (Fusarium graminearum); assay: whole plant or invertebrate; type: in vivo; settings: in Triticum aestivum, 144 h, read-out: control of Gibberella zeae

Structure (SMILES)	inhibition of growth at 20 ppm [1] [%]	pest or weed control at 200 ppm [2] [%]	inhibition of growth at 20 ppm [3] [%]	melting point [°C]	inhibition of growth at 20 ppm [4] [%]	inhibition of growth at 20 ppm [5] [%]	pest or weed control at 200 ppm [6] [%]	inhibition of growth at 20 ppm [7] [%]	inhibition of growth at 20 ppm [8] [%]	pest or weed control at 200 ppm [9] [%]
C=C(Cl)CC(C)(CC1CCCCC1)NC(=O)c1cnc2c(F)cccc2c1 (centres unmarked) [E-37]	≥ 80	≥ 80	≥ 80	109 to 111	≥ 80	≥ 80	≥ 80	≥ 80	≥ 80	
CC(CC1CCCC1)(CC(F)(F)F)NC(=O)c1cnc2c(F)cccc2c1 (centres unmarked) [E-59]	≥ 80	≥ 80	≥ 80	100 to 102	≥ 80	≥ 80	≥ 80	≥ 80	≥ 80	≥ 80
Cc1cccc2cc(C(=O)NC(C)(CC3CCCCC3)CC(F)(F)F)cnc12 (centres unmarked) [E-61]	≥ 80		≥ 80	107 to 110	≥ 80	≥ 80	≥ 80	≥ 80	≥ 80	
CC(CC1CCCCC1)(CC(F)(F)F)NC(=O)c1cnc2c(F)cccc2c1 (centres unmarked) [E-62]	≥ 80		≥ 80	55 to 76	≥ 80	≥ 80	≥ 80	≥ 80	≥ 80	
CC1(C[C@@](C)(CC(F)(F)F)NC(=O)c2cnc3c(F)cccc3c2)CC1 [F-2, 8-fluoro-N-[(1S)-3,3,3-trifluoro-1-methyl-1-[(1-methylcyclo-propyl)meth-yl]propyl]quinoline-3-carboxamide]	≥ 80	≥ 80	≥ 80		≥ 80	≥ 80	≥ 80		≥ 80	≥ 80
C[C@](CC1CCCCC1)(CC(F)(F)F)NC(=O)c1cnc2c(F)cccc2c1 [F-3, N-[(1S)-1-(cyclohexylmeth-yl)-3,3,3-trifluoro-1-methyl-propyl]-8-fluoro-quinoline-3-carboxamide]	≥ 80		≥ 80	132 to 133	≥ 80	≥ 80	≥ 80	≥ 80	≥ 80	
C[C@@](CC1CCCC1)(CC(F)(F)F)NC(=O)c1cnc2c(F)cccc2c1 [F-4, N-[(1R)-1-(cyclopentylmeth-yl)-3,3,3-trifluoro-1-methyl-propyl]-8-fluoro-quinoline-3-carboxamide]	≥ 80		≥ 80	100 to 101	≥ 80	≥ 80	≥ 80	≥ 80	≥ 80	
